Results taken from patent publication US20260365692A1, “COMPOSITIONS COMPRISING PROTEINS DISSOLVED IN FLUORINATED SOLVENTS, AND METHODS OF MAKING AND USING THE SAME” (priority 2022, published 2026).

What was measured:
[1] = biological target: bovine serum albumin (BSA) (Bos taurus, UniProt P02769); assay: Circular dichroism with PFNA, BSA
Excerpt: FIGS. 14A-14L depict circular dichroism spectra of Hb (FIG. 14A), GFP (FIG. 14B), BSA (FIG. 14C), β-Gal (FIG. 14D), rabbit serum IgG (FIG. 14E), transferrin (FIG. 14F), and urease (FIG. 14G) in the absence (black line) or presence (dashed lines) of PFNA. Increasing dash sequence indicated higher concentration of PFNA. FIG. 14H: Change in molar ellipticity at 216 nm (Δθ216) of PFNA-treated proteins, relative to native controls, as a function of increasing ligand concentration. FIG. 14I: Percentage change in secondary structural motifs of Hb, β-Gal and IgG between the native protein and 1 mM PFNA treated samples. β-sheet structures were further differentiated into parallel and antiparallel conformations. Hb, β-Gal and IgG were prioritized for analysis based on their significant spectral shift in the presence of 1 mM PFNA. FIGS. 14J-14L: Sensograms for BSA (FIG. 14J), β-gal (FIG. 14K), and IgG (FIG. 14L) showing relative response (R.U.) at 10, 25, 50, 75, and 100 μM.
(§1) To explore PFNA-mediated changes in protein structure, dose-response circular dichroism (CD) studies were performed (FIG. 14A-14G). […] Remarkably, these structural changes endured even at sub-stoichiometric PFNA:protein ratios (see 0.001 mM PFNA in […]; protein concentration was constant at 0.01 mM).

[2] = test system: tested proteins; assay: Induction of non-native protein secondary structure
Experimental: as §1
Prior studies have shown ≥15 vol % of TFE in water, which represents a 2M total concentration, was required to induce protein structural transitions. […] In addition, PFNA appeared to favor modulation of […] structures over α-helices, which can be interpreted by monitoring changes in both ellipticity at 216 nm (FIG. 14H) and percentage of secondary structural motifs (FIG. 14I) relative to the native protein. […] The dose-dependent reduction in the signal after analyte injection may have been due to conformational change of the target protein, as has been observed in prior studies.

[3] = test system: A549 cells; assay: Protein uptake in A549 cells, Texas Red-labeled Transferrin; assay type: cell-based, human; settings: PFNA, 24 hours of incubation
Experimental: FIGS. 19A-19B depicts the uptake of Texas Red-labeled Transferrin in human lung A549 cells after 2 and 24 hours of incubation in the absence/presence of PFNA. Results are shown in relative fluorescence units (RFU).
Multiplexed in vitro assays were employed to probe the influence of PFNA interactions on protein uptake and transport in cells. A549 and PC9 human lung cells were prioritized for these assays given that pulmonary tissue is a primary site of perfluoroalkyl bioaccumulation in humans (Reference: 63). Before initiating experiments, cellular toxicity assays established a maximum tolerated dose of PFNA to avoid confounding protein transport experiments with substantive cell death. Protein uptake was then studied using green fluorescent protein (GFP) and bovine serum albumin (BSACy5) as model biologics that employ non-specific pinocytic mechanisms for cellular entry.

[4] = β-Gal activity after bleach exposure; assay type: physicochemical; settings: β-Gal in PFOc
Experimental: FIGS. 54A-54C depict the relative activity of the β-Gal protein dispersed in PBS or PFOc solvents without and with contamination by (FIG. 54A) proteinase K, (FIG. 54B) bleach or (FIG. 54C) hydrochloric acid. Data shown as average±s.d. of n=3 technical replicates. Statistical significance between conditions is indicated by a line using unpaired Student's t-test with n.s.=not significant, * p<0.05, ** p<0.01, and *** p<0.001.
Here, stock of lyophilized β-Gal was prepared then dispersed in PBS or PFOc. A small volumetric quantity (1% v/v) of 10% bleach was added to the protein samples. Immediately, an equal volume of PBS containing 4 mg/mL ONPG substrate was added to the sample and incubated for 5 minutes to allow for complete substrate conversion. Last, absorbance was taken at 420 nm on the eluted samples, and relative activity was calculated by normalizing absorbance of converted ONPG in oxidizer-treated samples against their corresponding untreated group. […] Here, stock of lyophilized B-Gal was prepared then dispersed in PBS or PFOc. A small volumetric quantity (4% v/v) of 0.1 M HCl was added to the protein samples. After 30 seconds incubation, PBS containing 4 mg/mL ONPG was added to each of the samples to elute and start substrate conversion. After 3-minute conversion, the eluted samples were retrieved, and absorbance was read at 420 nm. […]

[5] = Acute toxicity in C57BL/6J mice (Example 3); assay type: in vivo; settings: 24 h
Experimental: Two groups (n=5) of C57BL/6J mice received […] of 10 μM solutions of β-Gal that was either 1) prepared in sterile PBS or 2) dissolved in PFOc (1 mM PFNA) and extracted into sterile PBS. Due to the large solution volumes given (150 μL, ~15% of mouse blood volume), PFOc dispersed proteins were extracted into sterile saline before injection to avoid hyponatremia. Samples were administered by tail vein injection.
To assess acute toxicity, animals were intravenously administered solutions of β-Gal either prepared in sterile PBS or dissolved in PFOc (1 mM PFNA) and extracted into sterile PBS, as described above. After 24 hours, mice were sacrificed, and blood was collected via cardiac puncture. A minimum of 100 μL of whole blood was added to EDTA for complete blood count. The remainder was centrifuged (1000 rcf, 10 minutes) to isolate serum for chemistry analysis. Tissues (lungs, livers, kidneys, and spleens) from euthanized animals were collected and stored in 10% buffered-formalin immediately after euthanasia. […] from each organ were mounted onto glass slides and stained with Hematoxylin and Eosin (H&E). Four random fields in each section were examined under a microscope at 5× and 40× magnification. Tissue relevant clinical features were compared across samples. […]

bovine serum albumin (BSA), sequence (P02769 25-607): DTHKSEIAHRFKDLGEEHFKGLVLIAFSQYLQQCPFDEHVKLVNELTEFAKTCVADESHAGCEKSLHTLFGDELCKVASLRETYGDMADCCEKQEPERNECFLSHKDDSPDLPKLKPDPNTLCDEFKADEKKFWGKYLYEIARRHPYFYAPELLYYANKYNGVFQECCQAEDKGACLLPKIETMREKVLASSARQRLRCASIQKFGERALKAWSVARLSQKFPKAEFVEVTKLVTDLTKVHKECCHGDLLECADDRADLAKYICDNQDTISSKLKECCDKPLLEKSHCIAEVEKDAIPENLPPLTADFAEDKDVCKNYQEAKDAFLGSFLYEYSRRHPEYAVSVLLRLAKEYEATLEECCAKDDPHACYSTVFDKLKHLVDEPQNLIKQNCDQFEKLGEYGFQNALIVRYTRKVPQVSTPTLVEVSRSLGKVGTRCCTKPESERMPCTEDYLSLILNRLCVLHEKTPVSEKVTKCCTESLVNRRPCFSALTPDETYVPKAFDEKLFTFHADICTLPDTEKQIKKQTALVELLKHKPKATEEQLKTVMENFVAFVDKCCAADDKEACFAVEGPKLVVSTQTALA

Row | Molecule | CD structural profile, BSA [1] | concentration sufficient to induce ordered non-native structure ([2]; many of the tested proteins) [mM] | increase in potency in inducing non-native protein secondary structure relative to TFE ([2]; relative to trifluoroethanol) | increase in cellular fluorescence (Transferrin uptake) compared to native protein [3] [%] | β-Gal activity versus PBS controls ([4]; bleach) | loss in functionality ([4]; bleach (1% v/v of 10% bleach), few minutes) [%] | BUN, RBC, HGB, HCT versus sham saline injection control ([5]; PFOc β-Gal, i.v.) | histologic organ analyses ([5]; lung, kidney, liver, spleen, β-Gal from PFOc)
1 | O=C(O)C(F)(F)C(F)(F)C(F)(F)C(F)(F)C(F)(F)C(F)(F)C(F)(F)C(F)(F)F [Compound 7, perfluoronanonic acid] | remained largely unchanged | 0.001 | 10^6 | 43 |  |  |  | 
2 | β-Gal: β-Galactosidase (β-Gal), dissolved in PBS/saline or dispersed in PFOc |  |  |  |  | statistically higher than that of PBS controls | ≥ 50 | none of these markers were statistically different | did not identify signs of necrosis, cellular infiltration, inflammation, or hemorrhage
